Our source for the IC50 values is US12043613B2, “Inhibitors of SARM1” (Disarm Therapeutics, Inc., priority 2020, dated 2024).

Broadly, the IC50 is the concentration at which inhibition is half-maximal. High values mean a need for much substance, low ones inhibition by little substance.

Each structure is given as a SMILES string. Bounds are passed on as bounds.

For the test, the target named is T1, SARM1 (ARM-SAM-TIR, full length SARM1) (Homo sapiens, UniProt Q6SZW1).
T1 sequence (Q6SZW1 with tags, fused parts or gaps): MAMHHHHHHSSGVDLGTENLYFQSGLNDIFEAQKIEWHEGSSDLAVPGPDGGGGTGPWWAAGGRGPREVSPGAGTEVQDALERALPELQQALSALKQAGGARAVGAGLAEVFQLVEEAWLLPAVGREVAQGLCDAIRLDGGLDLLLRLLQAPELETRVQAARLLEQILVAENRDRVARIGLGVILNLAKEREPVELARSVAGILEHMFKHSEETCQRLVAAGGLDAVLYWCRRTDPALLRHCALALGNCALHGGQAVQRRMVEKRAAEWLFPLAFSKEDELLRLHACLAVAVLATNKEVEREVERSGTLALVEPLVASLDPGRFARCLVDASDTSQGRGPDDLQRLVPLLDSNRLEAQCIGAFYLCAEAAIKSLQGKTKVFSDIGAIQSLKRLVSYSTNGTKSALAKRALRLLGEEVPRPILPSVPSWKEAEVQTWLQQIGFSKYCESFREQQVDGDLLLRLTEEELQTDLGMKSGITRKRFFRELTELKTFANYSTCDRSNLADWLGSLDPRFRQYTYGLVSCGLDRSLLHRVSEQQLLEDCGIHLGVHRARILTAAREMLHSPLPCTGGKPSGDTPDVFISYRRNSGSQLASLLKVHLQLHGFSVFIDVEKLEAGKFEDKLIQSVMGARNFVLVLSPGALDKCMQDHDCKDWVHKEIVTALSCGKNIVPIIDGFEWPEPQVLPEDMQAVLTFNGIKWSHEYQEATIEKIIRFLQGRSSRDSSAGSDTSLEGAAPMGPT
As to the kind of experiment: biochemical. To be noted: SARM1 IC50 (nM), ARM-SAM-TIR lysate 5 μg/mL from NRK1-HEK293T cells, 2 h pre-incubation, 5 uM NAD+, 2 hr room temperature.
Protocol: This assay makes use of full length SARM1, which encompasses the ARM, SAM and TIR domains.
Preparation of ARM-SAM-TIR lysate (STL)
NRK1-HEK293T cells were seeded onto 150 cm^2 plates at 20×10^6 cells per plate. The next day, the cells were transfected with 15 g ARM-SAM-TIR expression plasmid, SEQ ID NO: 1.
The cultures were supplemented with 1 mM NR at time of transfection to minimize toxicity from ARM-SAM-TIR overexpression. Forty-eight hours after transfection, cells were harvested, pelleted by centrifugation at 1,000 rpm (Sorvall ST 16R centrifuge, Thermo Fisher), and washed once with cold PBS (0.01 M phosphate buffered saline NaCl 0.138 M; KCl 0.0027 M; pH 7.4). The cells were resuspended in PBS with protease inhibitors (cOmplete™ protease inhibitor cocktail, Roche product #11873580001) and cell lysates were prepared by sonication (Branson Sonifer 450, output=3, 20 episodes of stroke). The lysates were centrifuged (12,000×g for 10 min at 4° C.) to remove cell debris and the supernatants (containing ARM-SAM-TIR protein) were stored at −80° C. for later use in the in vitro ARM-SAM-TIR NADase assay (see below). Protein concentration was determined by the Bicinchoninic (BCA) method and used to normalize lysate concentrations.
ARM-SAM-TIR IC50 assay of Formula I compounds.
The enzymatic assay was performed in a 384-well polypropylene plate in Dulbecco's PBS buffer in a final assay volume of 20 μL. ARM-SAM-TIR lysate with a final concentration of 5 μg/mL was pre-incubated with the respective compound at 1% DMSO final assay concentration over 2h at room temperature. The reaction was initiated by addition of 5 uM final assay concentration of NAD+ as substrate. After a 2 hr room temperature incubation, the reaction was terminated with 40 μL of stop solution of 7.5% trichloroactetic acid in acetonitrile. The NAD+ and ADPR concentrations were analyzed by a RapidFire High Throughput Mass Spectrometry System (Agilent Technologies, Santa Clara, Calif.) using an API4000 triple quadrupole mass spectrometer (AB Sciex Framingham, Mass.).
In the case of `O=C1[C@@H](Cc2ccc(Cl)cc2)NCCN1c1cc(-c2ccncc2)n[nH]1` [Compound I-1-b], the half-maximal inhibitory concentration (IC50) is over 1000 nM. Compound `CN1CCN(c2cc(-c3ccncc3)n[nH]2)C(=O)[C@@H]1Cc1ccc(Cl)cc1` [Compound I-2-a] had a concentration for half-maximal inhibition (IC50) of over 1000 nM. To `Cc1c(-c2ccncc2)n[nH]c1N1CCN[C@@H](Cc2ccc(Cl)cc2)C1=O` [Compound I-3-a] belongs over 1000 nM; to `O=C1C(Cc2ccc(Cl)cc2)CCN1c1nnc(-c2ccncc2)[nH]1` (stereo not drawn) [Compound I-4], under 50 nM. The figure for `O=C1C(Cc2ccc(Cl)cc2)CCCN1c1nnc(-c2ccncc2)[nH]1` (stereo not drawn) [Compound I-5] is under 50 nM; for `Cc1c(N2CCC(Cc3ccc(Cl)cc3)C2=O)n[nH]c1-c1ccncc1` (stereo not drawn) [Compound I-6] it is 51 to 100 nM.

For the compound `O=C1C(Cc2ccc(F)cc2)CCN1c1nnc(-c2ccncc2)[nH]1` (stereo not drawn) [Compound I-7], the IC50 was in the range of 101 to 500 nM. Turning to `O=C1C(Cc2ccc(Cl)c(F)c2)CCN1c1nnc(-c2ccncc2)[nH]1` (stereo not drawn) [Compound I-8], the half-inhibitory concentration (IC50) is under 50 nM.

`O=C1C(Cc2ccc(Cl)nc2)CCN1c1nnc(-c2ccncc2)[nH]1` (stereo not drawn) [Compound I-9] gave a concentration for half-maximal inhibition (IC50) of 101 to 500 nM. To `O=C1C(Cc2ccc(Cl)c(F)c2)CCCN1c1nnc(-c2ccncc2)[nH]1` (stereo not drawn) [Compound I-10] belongs under 50 nM; to `O=C1C(Cc2ccc(F)c(F)c2)CCN1c1nnc(-c2ccncc2)[nH]1` (stereo not drawn) [Compound I-11], under 50 nM. `O=C1N(c2nnc(-c3ccncc3)[nH]2)CCC1(Cc1ccc(F)c(F)c1)Cc1ccc(F)c(F)c1` [Compound I-12] yielded an IC50 of over 1000 nM. As for `O=C1C(Cc2ccc(F)c(F)c2)CCCN1c1nnc(-c2ccncc2)[nH]1` (stereo not drawn) [Compound I-13], the concentration for half-maximal inhibition (IC50) was under 50 nM. To `O=C1C(Cc2ccc(Cl)c(F)c2)CCN1c1cc(-c2ccncc2)n[nH]1` (stereo not drawn) [Compound I-14] belongs under 50 nM. To `O=C1C(Cc2ccc(Cl)cc2)CCN1c1cc(-c2ccncc2)n[nH]1` (stereo not drawn) [Compound I-15] belongs under 50 nM; to `O=C1C(Cc2ccc(F)c(F)c2)CCN1c1cc(-c2ccncc2)n[nH]1` (stereo not drawn) [Compound I-16], under 50 nM; to `O=C1C(Cc2ccc(Cl)nc2)CCN1c1cc(-c2ccncc2)n[nH]1` (stereo not drawn) [Compound I-17], under 50 nM.

`O=C1C(Cc2cnc(Cl)c(F)c2)CCN1c1nnc(-c2ccncc2)[nH]1` (stereo not drawn) [Compound I-18] displayed a 50% inhibitory concentration (IC50) of 51 to 100 nM. The figure for `O=C1C(Cc2ccc(Cl)cc2)CCCN1c1cc(-c2ccncc2)n[nH]1` (stereo not drawn) [Compound I-19] is under 50 nM; for `O=C1C(Cc2ccc(Cl)c(F)c2)CCCN1c1cc(-c2ccncc2)n[nH]1` (stereo not drawn) [Compound I-20] it is under 50 nM; for `O=C1C(Cc2ccc(Cl)nc2)CCCN1c1cc(-c2ccncc2)n[nH]1` (stereo not drawn) [Compound I-21] it is under 50 nM. Compound `O=C1C(Cc2ccc(F)c(F)c2)CCCN1c1cc(-c2ccncc2)n[nH]1` (stereo not drawn) [Compound I-22] yielded a 50% inhibitory concentration (IC50) of under 50 nM. To `O=C1C(Cc2ccc(F)nc2)CCCN1c1nnc(-c2ccncc2)[nH]1` (stereo not drawn) [Compound I-23] belongs under 50 nM; to `O=C1C(Cc2cnc(Cl)c(F)c2)CCCN1c1nnc(-c2ccncc2)[nH]1` (stereo not drawn) [Compound I-24], under 50 nM. `N#Cc1ccc(CC2CCN(c3[nH]nc(-c4ccncc4)c3F)C2=O)cc1F` (stereo not drawn) [Compound I-25] gave a half-inhibitory concentration (IC50) of 101 to 500 nM. `N#Cc1ccc(CC2CCN(c3nnc(-c4ccncc4)[nH]3)C2=O)cc1F` (stereo not drawn) [Compound I-26] showed a 50% inhibitory concentration (IC50) of 101 to 500 nM. With `O=C1C(Cc2ccc(F)nc2)CCCN1c1[nH]nc(-c2ccncc2)c1F` (stereo not drawn) [Compound I-27], the half-maximal inhibitory concentration (IC50) was in the range of 101 to 500 nM.

In the case of `O=C1C(Cc2ccc(F)nc2)CCCN1c1[nH]nc(-c2ccncc2)c1Cl` (stereo not drawn) [Compound I-28], the half-maximal inhibitory concentration (IC50) was over 1000 nM. To `O=C1C(Cc2ccc(Cl)nc2)CCCN1c1[nH]nc(-c2ccncc2)c1Cl` (stereo not drawn) [Compound I-29] belongs over 1000 nM; to `O=C1C(Cc2ccc(Cl)nc2)CNN1c1cc(-c2ccncc2)n[nH]1` (stereo not drawn) [Compound I-30], over 1000 nM; to `O=C1C(Cc2ccc(Cl)nc2)CCCN1c1[nH]nc(-c2ccncc2)c1F` (stereo not drawn) [Compound I-31], 101 to 500 nM.

The compound `O=C1C(Cc2ccc(F)nc2)CCN1c1[nH]nc(-c2ccncc2)c1Cl` (stereo not drawn) [Compound I-32] came in with an IC50 of under 50 nM. Compound `O=C1C(Cc2ccc(F)nc2)CCN1c1[nH]nc(-c2ccncc2)c1F` (stereo not drawn) [Compound I-33] returned an IC50 of under 50 nM. As for `O=C1C(Cc2ccc(Cl)nc2)CCN1c1[nH]nc(-c2ccncc2)c1Cl` (stereo not drawn) [Compound I-34], the IC50 was under 50 nM.

Compound `O=C1C(Cc2ccc(Cl)nc2)NCN1c1cc(-c2ccncc2)n[nH]1` (stereo not drawn) [Compound I-35] displayed a half-inhibitory concentration (IC50) of 501 to 1000 nM. For the compound `O=C1C(Cc2ccc(Cl)nc2)CCN1c1[nH]nc(-c2ccncc2)c1F` (stereo not drawn) [Compound I-36], the IC50 was under 50 nM. For the compound `N#Cc1ccc(CC2CCN(c3cc(-c4ccncc4)n[nH]3)C2=O)cc1F` (stereo not drawn) [Compound I-37], the half-maximal inhibitory concentration (IC50) was 51 to 100 nM. The compound `O=C1C(Cc2ccc(Cl)cc2)CNCCN1c1nc(-c2ccncc2)n[nH]1` (stereo not drawn) [Compound I-38] displayed a 50% inhibitory concentration (IC50) of 501 to 1000 nM. The compound `O=C1C(Cc2ccc(F)nc2)CCN1c1nnc(-c2ccncc2)[nH]1` (stereo not drawn) [Compound I-39] registered an IC50 of 101 to 500 nM. Turning to `O=C1C(Cc2ccc(Cl)nc2)CCCCN1c1cc(-c2ccncc2)n[nH]1` (stereo not drawn) [Compound I-40], the concentration for half-maximal inhibition (IC50) lay within 101 to 500 nM.

`Cc1c(-c2ccncc2)n[nH]c1N1CCC(Cc2cnc(Cl)c(F)c2)C1=O` (stereo not drawn) [Compound I-41] gave an IC50 of 101 to 500 nM. `O=C1N(c2nc(-c3ccncc3)n[nH]2)CCC1(F)Cc1ccc(Cl)nc1` (stereo not drawn) [Compound I-42] yielded an IC50 of over 1000 nM.

Regarding `CC1(Cc2ccc(F)c(F)c2)CCN(c2nc(-c3ccncc3)n[nH]2)C1=O` (stereo not drawn) [Compound I-43], the 50% inhibitory concentration (IC50) was over 1000 nM.

On to `O=C1C(Cc2ccc(Cl)cc2)OCCN1c1nnc(-c2ccncc2)[nH]1` (stereo not drawn) [Compound I-44], for which the half-maximal inhibitory concentration (IC50) is under 50 nM. To `CC1(Cc2ccc(Cl)cc2)CCN(c2nc(-c3ccncc3)n[nH]2)C1=O` (stereo not drawn) [Compound I-45] belongs 501 to 1000 nM.

Compound `O=C1C(Cc2ccc(Cl)cc2)OCCN1c1cc(-c2ccncc2)n[nH]1` (stereo not drawn) [Compound I-47] returned an IC50 of 51 to 100 nM.

Regarding `Cc1c(-c2ccncc2)n[nH]c1N1CCC(Cc2ccc(Cl)nc2)C1=O` (stereo not drawn) [Compound I-48], the IC50 is 101 to 500 nM. The figure for `Cc1c(-c2ccncc2)n[nH]c1N1CCC(Cc2ccc(F)c(F)c2)C1=O` (stereo not drawn) [Compound I-49] is 51 to 100 nM; for `Cc1c(-c2ccncc2)n[nH]c1N1CCCC(Cc2ccc(Cl)cc2)C1=O` (stereo not drawn) [Compound I-50] it is over 1000 nM; for `N#Cc1c(-c2ccncc2)n[nH]c1N1CCC(Cc2ccc(Cl)nc2)C1=O` (stereo not drawn) [Compound I-51] it is 51 to 100 nM. As for `N#Cc1c(-c2ccncc2)n[nH]c1N1CCC(Cc2ccc(Cl)cc2)C1=O` (stereo not drawn) [Compound I-52], the concentration for half-maximal inhibition (IC50) is under 50 nM. The figure for `N#Cc1c(-c2ccncc2)n[nH]c1N1CCC(Cc2ccc(F)c(F)c2)C1=O` (stereo not drawn) [Compound I-53] is 51 to 100 nM; for `CC1(Cc2ccc(Cl)cc2)CCCN(c2nc(-c3ccncc3)n[nH]2)C1=O` (stereo not drawn) [Compound I-54] it is 101 to 500 nM. To `O=C1C(Cc2ccc(Cl)nc2)CCCN1c1nnc(-c2ccncc2)[nH]1` (stereo not drawn) [Compound I-55] belongs 51 to 100 nM. The figure for `N#Cc1c(-c2ccncc2)n[nH]c1N1CCCC(Cc2ccc(Cl)cc2)C1=O` (stereo not drawn) [Compound I-56] is 101 to 500 nM.

Compound `O=C1C(Cc2ccc(Cl)nc2)OCCN1c1nnc(-c2ccncc2)[nH]1` (stereo not drawn) [Compound I-58] gave a concentration for half-maximal inhibition (IC50) of 101 to 500 nM.

`O=C1C(Cc2ccc(Cl)cc2)NCN1c1cc(-c2ccncc2)n[nH]1` (stereo not drawn) [Compound I-59] gave an IC50 of 101 to 500 nM. The figure for `N[C@H]1CC(Cc2ccc(Cl)nc2)C(=O)N(c2cc(-c3ccncc3)n[nH]2)C1` (stereo partly drawn) [Compound I-60] is 501 to 1000 nM; for `CC1(Cc2ccc(Cl)nc2)CCCN(c2nnc(-c3ccncc3)[nH]2)C1=O` (stereo not drawn) [Compound I-63] it is 501 to 1000 nM; for `O=C1C(Cc2ccc(Cl)nc2)CNCN1c1cc(-c2ccncc2)n[nH]1` (stereo not drawn) [Compound I-64] it is over 1000 nM. To `O=C1C(Cc2cnc(Cl)c(F)c2)CCN1c1cc(-c2ccncc2)n[nH]1` (stereo not drawn) [Compound I-65] belongs under 50 nM; to `O=C1C(Cc2cnc(Cl)c(F)c2)CCCN1c1cc(-c2ccncc2)n[nH]1` (stereo not drawn) [Compound I-66], under 50 nM; to `O=C1C(Cc2ccc(F)nc2)CCN1c1cc(-c2ccncc2)n[nH]1` (stereo not drawn) [Compound I-67], under 50 nM. The figure for `N#Cc1c(-c2ccncc2)n[nH]c1N1CCCC(Cc2ccc(Cl)nc2)C1=O` (stereo not drawn) [Compound I-68] is 101 to 500 nM. `[2H]C1(Cc2ccc(F)nc2)C(=O)N(c2cc(-c3ccncc3)n[nH]2)C([2H])([2H])C([2H])([2H])C1([2H])[2H]` (stereo not drawn) [Compound I-70] yielded a concentration for half-maximal inhibition (IC50) of 51 to 100 nM. To `[2H]C([2H])(c1ccc(Cl)nc1)C1([2H])C(=O)N(c2cc(-c3ccncc3)n[nH]2)C([2H])([2H])C([2H])([2H])C1([2H])[2H]` (stereo not drawn) [Compound I-79] belongs under 50 nM.
